Assay results reported in patent publication US20220040122A1, “COMPOSITION FOR ALLERGY PREVENTION, ATOPIC DERMATITIS ALLEVIATION OR SKIN REGENERATION, CONTAINING, AS ACTIVE INGREDIENT, UNDECANE OR UNDECANAL” (BOTANICSENS, priority 2019, published 2022).
“Also recorded” adds a separate entry of the source.

Assays:
rats [1] = details: chronic oral administration; cited from earlier work
[2] = test system: Keratinocytes (human keratinocyte cell line, HaCaT); assay: Inflammatory cytokine expression (real-time PCR) in TNF-α/IFN-γ-stimulated keratinocytes; format: cell-based; details: 24 h, vs immune-response-induced control
Experimental: (§1) Keratinocytes (human keratinocyte cell line, HaCaT) were purchased from ATCC (Manassas, Va., USA) and used. For cell culture, the culture medium of DMEM containing 10% fetal bovine serum (FBS) and antibiotics was used. The culture vessel used a 75T-flask and a 6-well plate, and cultured in a 37° C. incubator supplied with 5% CO2. The culture medium was changed every 3 to 4 days, and subculture was performed when the cells were excessively proliferated. The dispensed HaCaT cells (5×10^5/well) were cultured for 24 hours and then washed with PBS. In order to induce an immune response to keratinocytes, TNF-α (tumor necrosis factor-α) (10 ng/ml) and IFN-γ (interferon gamma) (10 ng/ml) were treated together in DMEM medium without FBS and incubated for 24 hours. At this time, in order to evaluate the efficacy of alleviating the immune response of undecane, 100 μM of undecane was simultaneously treated, and in the case of normal cells, DMSO instead of undecane, and in the case of positive control cells, 10 μM of tacrolimus instead of undecane were treated simultaneously with the immune response inducer and incubated for 24 hours.
(§2) After removing the supernatant of the mast cells that induced the immune response, 1 ml of trizol was added, left for 2 minutes, and chloroform was added, vortexed for 10 seconds, centrifuged at 5,000 rpm for 10 minutes, and the upper layer was taken, and mixed with the same amount of isopropanol and shaken. The supernatant was removed by centrifugation at 13,000 rpm for 25 minutes, and the pellet was dissolved in 20 μl of diethyl pyrocarbonate (DEPC)-DW and stored at −20° C. and then used in the experiment. RT-PCR was performed using a one-step RT-PCR PreMixkit (iNtRON Biotechnology, Korea) at 45° C. for 30 minutes and at 94° C. for 5 minutes, followed by denaturation at 94° C. for 30 seconds, and then after annealing at 55° C. for 30 seconds, the cycle of extension at 72° C. for 1 minute was repeated 32 times, and the last extension was performed at 72° C. for 5 minutes, and PiQ SYBR green supermix (Bio-Rad) and CFX Connect™ Real-Time PCR Detection System (Bio-Rad) was used to perform quantitative PCR, and the primer sequences used are as shown in Table 1.
as §1, with “undecanal,” for “undecane,”, “undecanal” for “undecane”
RNA isolation and real-time PCR (quantitative reverse-transcription polymerase chain reaction) using a Trizol method was performed by the same method as 3) RNA isolation using the Trizol method and real-time PCR of 1-1. of Example 1 described above.

rats [3] = details: rat, in vivo, po; cited from earlier work
[4] = test system: Mast cells (rat basophilic leukemia cell line, RBL-2H3); assay: Inflammatory cytokine expression (real-time PCR) in anti-DNP-IgE/DNP-HSA-stimulated mast cells; format: cell-based; details: 1 h before DNP-HSA induction, vs immune-response-induced control
Experimental: Then, it was sensitized with anti-DNP (dinitrophenyl)-IgE (30 ng/ml) and cultured for 24 hours at 37° C., 5% CO2 in an incubator. After washing twice with PBS (phosphate buffered saline), DNP-HSA (dinitrophenylated human serum albumin; 10 μg/ml) was treated for 4 hours to induce an immune response. In addition, in order to evaluate atopy alleviating effect by undecane, mast cells treated with anti-DNP (dinitrophenyl)-IgE and cultured for 24 hours were treated with 100 μM of undecane, cultured for 1 hour, and then an immune response was induced with DNP-HSA. Normal cells were treated with DMSO instead of undecane under the same conditions as undecane-treated cells, and positive control cells were treated with 10 μM of tacrolimus instead of undecane and cultured for 1 hour, and then, an immune response was induced with DNP-HSA.
as §2, with “1. […]” for “1.”
Then, it was sensitized with anti-DNP (dinitrophenyl)-IgE (30 ng/ml) and cultured for 24 hours at 37° C., 5% CO2 in an incubator. After washing twice with PBS (phosphate buffered saline), DNP-HSA (dinitrophenylated human serum albumin; 10 μg/ml) was treated for 4 hours to induce an immune response. In addition, in order to evaluate an effect of alleviating atopy by undecanal, mast cells treated with anti-DNP (dinitrophenyl)-IgE and cultured for 24 hours were treated with 100 μM of undecanal, cultured for 1 hour, and then an immune response was induced with DNP-HSA. Normal cells were treated with DMSO instead of undecanal under the same conditions as undecanal-treated cells, and positive control cells were treated with 10 μM of tacrolimus instead of undecanal and cultured for 1 hour, and then, an immune response was induced with DNP-HSA. […]

rats [5] = details: cited from earlier work
[6] = 100 μM test compound together with TNF-α and IFN-γ
[7] = positive control 10 μM together with TNF-α and IFN-γ

SMILES: CCCCCCCCCCC=O [undecanal]
- no-observed-adverse-effect level (NOAEL) (rats [1]): about 1000 mg/kg bw
- expression of IL-1β [2, 6]: significantly reduced; also recorded: remarkably reduced
- expression of IL-6 [2, 6]: significantly reduced; also recorded: remarkably reduced
- expression of IL-8 [2, 6]: significantly reduced; also recorded: remarkably reduced
- LD50 (lethal dose, 50%) (rats [3]): > 5,000 mg/kg bw/day
- expression of IL-4 ([4]; 100 μM test compound): significantly reduced; also recorded: remarkably reduced
- expression of IL-13 ([4]; 100 μM test compound): significantly reduced; also recorded: remarkably reduced
- expression of TNF-α ([4]; 100 μM test compound): significantly reduced; also recorded: remarkably reduced

SMILES: C=CC[C@@H]1/C=C(\C)C[C@H](C)C[C@H](OC)[C@H]2O[C@@](O)(C(=O)C(=O)N3CCCC[C@H]3C(=O)O[C@H](/C(C)=C/[C@@H]3CC[C@@H](O)[C@H](OC)C3)[C@H](C)[C@@H](O)CC1=O)[C@H](C)C[C@@H]2OC [tacrolimus, reference compound]
- expression of IL-1β [2, 7]: significantly reduced
- expression of IL-6 [2, 7]: significantly reduced
- expression of IL-8 [2, 7]: significantly reduced
- expression of IL-4 ([4]; positive control 10 μM): significantly reduced
- expression of IL-13 ([4]; positive control 10 μM): significantly reduced
- expression of TNF-α ([4]; positive control 10 μM): significantly reduced

SMILES: CCCCCCCCCCC [undecane]
- expression of IL-1β [2, 6]: significantly reduced; also recorded: remarkably reduced
- expression of IL-6 [2, 6]: significantly reduced; also recorded: remarkably reduced
- expression of IL-8 [2, 6]: significantly reduced; also recorded: remarkably reduced
- LD50 (lethal dose, 50%) for inhalation toxicity (rats [5]): about 442 ppm/8H
- expression of IL-4 ([4]; 100 μM test compound): significantly reduced; also recorded: remarkably reduced
- expression of IL-13 ([4]; 100 μM test compound): significantly reduced; also recorded: remarkably reduced
- expression of TNF-α ([4]; 100 μM test compound): significantly reduced; also recorded: remarkably reduced
